Where two headings read alike, the source gives them in different places.

The values below come from patent US20250115597A1, “TYK2 INHIBITORS AND COMPOSITIONS AND METHODS THEREOF” (LYNK PHARMACEUTICALS CO. LTD., priority 2021, published 2025).

Data set [1] is described as follows: Microsomal metabolic stability assay. It counts as in vitro ADME. Particulars: pH 7.4, 0.5 mg/mL protein, 1 μM compound. The method, boiled down: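 Parent loss was tracked by LC/MS/MS at 0, 5, 15, 30 and 45 min, with half-life derived from the ln(% remaining)–time slope. Incubation at 37 °C, pH 7.4 phosphate/EDTA buffer: 0.5 mg/mL microsomes, 1 μM compound, NADPH-regenerated (2 mM).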

Data set [2] concerns the target T1, Ba/F3-FL-TYK2-P760L cells (Homo sapiens, UniProt P29597, P760L, cells depend on it).
T1 construct: BaF3-FL-T2P760L (nM)
The data set can be described thus: Anti-proliferative assay, Ba/F3-FL-TYK2-P760L cells (Cell-Titer Glo). In kind it is cell-based. Particulars: 72 h, read-out: BaF3-FL-T2P760L IC50. The method, boiled down: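 Compound exposure ran 72 h at 37 °C in 5% CO2 across nine 3-fold concentrations from a 20 μM top dose, added 24 h after seeding 2000 cells/well.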

Where [3] appears, read: dog liver microsomes, read-out: Dog LM Clint.
Setting [4] is: dog liver microsomes, read-out: Dog LM T½.
[5] abbreviates: human liver microsomes, read-out: Human LM Clint.
Setting [6] is: human liver microsomes, read-out: Human LM T½.
The mark [7] stands for this setting: rat liver microsomes, read-out: Rat LM Clint.
[8] abbreviates: rat liver microsomes, read-out: Rat LM T½.

T1 sequence (P29597 whole entry P760L): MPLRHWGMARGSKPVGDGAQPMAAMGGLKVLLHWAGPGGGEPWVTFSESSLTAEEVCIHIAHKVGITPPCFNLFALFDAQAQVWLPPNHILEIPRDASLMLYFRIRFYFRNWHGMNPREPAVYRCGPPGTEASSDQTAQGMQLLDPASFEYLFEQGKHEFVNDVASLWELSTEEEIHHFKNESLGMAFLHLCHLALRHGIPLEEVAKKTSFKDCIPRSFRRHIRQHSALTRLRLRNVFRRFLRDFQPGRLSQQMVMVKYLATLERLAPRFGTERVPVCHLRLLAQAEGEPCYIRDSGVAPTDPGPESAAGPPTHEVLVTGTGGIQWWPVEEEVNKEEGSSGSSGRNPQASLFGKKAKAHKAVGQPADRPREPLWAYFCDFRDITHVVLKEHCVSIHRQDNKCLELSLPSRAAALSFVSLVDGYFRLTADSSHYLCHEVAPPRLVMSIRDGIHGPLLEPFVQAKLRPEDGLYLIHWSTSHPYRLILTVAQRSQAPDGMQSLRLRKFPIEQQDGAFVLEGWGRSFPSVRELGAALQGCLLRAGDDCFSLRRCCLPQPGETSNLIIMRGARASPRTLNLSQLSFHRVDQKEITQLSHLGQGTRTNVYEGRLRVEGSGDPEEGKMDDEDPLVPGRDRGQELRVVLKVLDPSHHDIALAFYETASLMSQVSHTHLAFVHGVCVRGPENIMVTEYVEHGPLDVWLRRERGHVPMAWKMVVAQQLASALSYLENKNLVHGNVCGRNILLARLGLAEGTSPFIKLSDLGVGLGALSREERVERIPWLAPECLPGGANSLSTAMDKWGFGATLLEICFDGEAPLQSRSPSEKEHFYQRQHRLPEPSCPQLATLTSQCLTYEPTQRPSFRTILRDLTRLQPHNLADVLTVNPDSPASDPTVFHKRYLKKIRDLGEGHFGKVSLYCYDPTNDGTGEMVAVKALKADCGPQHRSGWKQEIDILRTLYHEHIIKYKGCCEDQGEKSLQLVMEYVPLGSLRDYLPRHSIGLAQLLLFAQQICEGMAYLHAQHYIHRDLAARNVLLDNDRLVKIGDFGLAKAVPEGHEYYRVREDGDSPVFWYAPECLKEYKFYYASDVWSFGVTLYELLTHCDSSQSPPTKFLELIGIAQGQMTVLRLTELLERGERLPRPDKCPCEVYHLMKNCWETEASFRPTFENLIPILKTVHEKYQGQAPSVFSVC

Regarding `[2H]C([2H])([2H])NC(=O)c1cnc(Nc2cccc(C#N)n2)cc1Nc1cn(C)c2c(Cl)cn(CC)c(=O)c12` [Example 163, 4-((7-Chloro-5-ethyl-1-methyl-4-oxo-4,5-dihydro-1H-pyrrolo[3,2-c]pyridin-3-yl)amino)-6-((6-cyanopyridin-2-yl)amino)-N-(methyl-d3)nicotinamide], the microsomal CLint at 1 μM in data set [1] (setting [3]) worked out at 12.1 µL/min/mg; in data set [1] (setting [5]) it was 82.1 µL/min/mg; in data set [1] (setting [7]), 101 µL/min/mg. The half-life at 1 μM in data set [1] (setting [4]) was 1.91 h; in data set [1] (setting [6]), 0.282 h; in data set [1] (setting [8]) it was 0.229 h. For the same compound, the GI50 in data set [2] stood at 36.7 nM.
On to `CNC(=O)c1cnc(NC(=O)C2CC2)cc1Nc1csc2c(Cl)cn(C)c(=O)c12` [Example 171, 4-((7-Chloro-5-methyl-4-oxo-4,5-dihydrothieno[3,2-c]pyridin-3-yl)amino)-6-(cyclopropanecarboxamido)-N-methylnicotinamide], for which the microsomal CLint at 1 μM was 2.94 µL/min/mg in data set [1] (setting [3]), 12.8 µL/min/mg in data set [1] (setting [5]) and 16.9 µL/min/mg in data set [1] (setting [7]). For the same compound, the figures for the half-life at 1 μM in data set [1] (setting [4]), in data set [1] (setting [6]) and in data set [1] (setting [8]) were 7.85 h, 1.81 h and 1.37 h, respectively. In addition, the GI50 in data set [2] was 105 nM.
On to `[2H]C([2H])([2H])NC(=O)c1cnc(NC(=O)C2CC2)cc1Nc1csc2c(Cl)cn(C)c(=O)c12` [Example 172, 4-((7-Chloro-5-methyl-4-oxo-4,5-dihydrothieno[3,2-c]pyridin-3-yl)amino)-6-(cyclopropanecarboxamido)-N-(methyl-d3)nicotinamide], for which the microsomal CLint at 1 μM in data set [1] (setting [3]) stood at 16.5 µL/min/mg; in data set [1] (setting [5]), 57.4 µL/min/mg; in data set [1] (setting [7]), 66.5 µL/min/mg. Besides, the results for the half-life at 1 μM in data set [1] (setting [4]), in data set [1] (setting [6]) and in data set [1] (setting [8]) were 1.4 h, 0.402 h and 0.347 h, respectively. The GI50 in data set [2] was determined as 109 nM.
With `[2H]C([2H])([2H])NC(=O)c1cnc(NC(=O)C2CC2)cc1Nc1csc2c(Cl)cn(C([2H])([2H])[2H])c(=O)c12` [Example 174, 4-((7-Chloro-5-(methyl-d3)-4-oxo-4,5-dihydrothieno[3,2-c]pyridin-3-yl)amino)-6-(cyclopropanecarboxamido)-N-(methyl-d3)nicotinamide], the microsomal CLint at 1 μM was under 11.5 µL/min/mg in data set [1] (setting [3]), 18.2 µL/min/mg in data set [1] (setting [5]) and 25.9 µL/min/mg in data set [1] (setting [7]). In addition, the values for the half-life at 1 μM in data set [1] (setting [4]), in data set [1] (setting [6]) and in data set [1] (setting [8]) were over 2 h, 1.27 h and 0.892 h, respectively. Further, in data set [2], the GI50 amounted to 147 nM.
As for `[2H]C([2H])([2H])NC(=O)c1cnc(NC(=O)C2CC2)cc1Nc1csc2cnn(C(C)C)c(=O)c12` [Example 184, 6-(Cyclopropanecarboxamido)-4-((5-isopropyl-4-oxo-4,5-dihydrothieno[2,3-d]pyridazin-3-yl)amino)-N-(methyl-d3)nicotinamide], the microsomal CLint at 1 μM in data set [1] (setting [3]) was under 11.5 µL/min/mg; in data set [1] (setting [5]), under 11.5 µL/min/mg; in data set [1] (setting [7]), 23.1 µL/min/mg. Besides, the results for the half-life at 1 μM in data set [1] (setting [4]), in data set [1] (setting [6]) and in data set [1] (setting [8]) were over 2 h, over 2 h and 1 h, respectively. The GI50 in data set [2] is 189 nM.
For the compound `[2H]C([2H])([2H])NC(=O)c1cnc(NC(=O)C2CC2)cc1Nc1csc2cnn(C(C)C(F)(F)F)c(=O)c12` (centres unmarked) [Example 185, 6-(Cyclopropanecarboxamido)-N-(methyl-d3)-4-((4-oxo-5-(1,1,1-trifluoropropan-2-yl)-4,5-dihydrothieno[2,3-d]pyridazin-3-yl)amino)nicotinamide], the microsomal CLint at 1 μM in data set [1] (setting [3]), in data set [1] (setting [5]) and in data set [1] (setting [7]) was under 11.5 µL/min/mg each time. Further, the half-life at 1 μM in data set [1] (setting [4]), in data set [1] (setting [6]) and in data set [1] (setting [8]) was over 2 h each time. Further, in data set [2], the GI50 was 428 nM.
For the compound `[2H]C([2H])([2H])NC(=O)c1cnc(NC(=O)C2CC2)cc1Nc1csc2cnn(CC(F)(F)F)c(=O)c12` [Example 189, 6-(Cyclopropanecarboxamido)-N-(methyl-d3)-4-((4-oxo-5-(2,2,2-trifluoroethyl)-4,5-dihydrothieno[2,3-d]pyridazin-3-yl)amino)nicotinamide], the microsomal CLint at 1 μM in data set [1] (setting [3]) worked out at 1.15 µL/min/mg; in data set [1] (setting [5]), 6.2 µL/min/mg; in data set [1] (setting [7]), 26.1 µL/min/mg. Moreover, the half-life at 1 μM in data set [1] (setting [4]) is 20.1 h; in data set [1] (setting [6]), 3.73 h; in data set [1] (setting [8]), 0.884 h. For the same compound, the GI50 in data set [2] was determined as 247 nM.
As to `[2H]C([2H])([2H])NC(=O)c1cnc(NC(=O)C2CC2)cc1Nc1csc2cnn(CC3CC3(F)F)c(=O)c12` (centres unmarked) [Example 191, 6-(Cyclopropanecarboxamido)-4-((5-((2,2-difluorocyclopropyl)methyl)-4-oxo-4,5-dihydrothieno[2,3-d]pyridazin-3-yl)amino)-N-(methyl-d3)nicotinamide], the microsomal CLint at 1 μM was under 11.5 µL/min/mg in data set [1] (setting [3]), under 11.5 µL/min/mg in data set [1] (setting [5]) and 13.1 µL/min/mg in data set [1] (setting [7]). The half-life at 1 μM was over 2 h in data set [1] (setting [4]), over 2 h in data set [1] (setting [6]) and 1.77 h in data set [1] (setting [8]). For the same compound, the GI50 in data set [2] is 1270 nM.
On to `[2H]C([2H])([2H])NC(=O)c1cnc(NC(=O)C2CC2)cc1Nc1cn(C)c2ncn(CC(F)(F)F)c(=O)c12` [Example 195, 6-(Cyclopropanecarboxamido)-N-(methyl-d3)-4-((7-methyl-4-oxo-3-(2,2,2-trifluoroethyl)-4,7-dihydro-3H-pyrrolo[2,3-d]pyrimidin-5-yl)amino)nicotinamide], for which the microsomal CLint at 1 μM in data set [1] (setting [5]) turned out to be 40 µL/min/mg; in data set [1] (setting [7]), 8.8 µL/min/mg. Besides, the half-life at 1 μM came to 0.578 h in data set [1] (setting [6]) and 2.62 h in data set [1] (setting [8]). For the same compound, in data set [2], the GI50 was found to be 560 nM.
Consider `[2H]C([2H])([2H])NC(=O)c1cnc(Nc2ccn(C)n2)cc1Nc1cn(C)c2c(C)cn(CC)c(=O)c12` [Example 198, 4-((5-Ethyl-1,7-dimethyl-4-oxo-4,5-dihydro-1H-pyrrolo[3,2-c]pyridin-3-yl)amino)-N-(methyl-d3)-6-((1-methyl-1H-pyrazol-3-yl)amino)nicotinamide], for which the microsomal CLint at 1 μM is under 11.5 µL/min/mg in data set [1] (setting [3]), 26.4 µL/min/mg in data set [1] (setting [5]) and 53.8 µL/min/mg in data set [1] (setting [7]). Also, the half-life at 1 μM is over 2 h in data set [1] (setting [4]), 0.875 h in data set [1] (setting [6]) and 0.429 h in data set [1] (setting [8]). Also, the GI50 in data set [2] amounted to 585 nM.
Regarding `[2H]C([2H])([2H])NC(=O)c1cnc(NC(=O)C2CC2)cc1Nc1cn(C)c2cnn(C(C)C(F)(F)F)c(=O)c12` (centres unmarked) [Example 200, 6-(Cyclopropanecarboxamido)-N-(methyl-d3)-4-((1-methyl-4-oxo-5-(1,1,1-trifluoropropan-2-yl)-4,5-dihydro-1H-pyrrolo[2,3-d]pyridazin-3-yl)amino)nicotinamide], the microsomal CLint at 1 μM in data set [1] (setting [5]) was under 11.5 µL/min/mg. Also, the half-life at 1 μM in data set [1] (setting [6]) is over 2 h. For the same compound, the GI50 in data set [2] was determined as 648 nM.
Turning to `[2H]C([2H])([2H])NC(=O)c1cnc(NC(=O)C2CC2)cc1Nc1cn(CCOC)c2ccn(C(C)C(F)(F)F)c(=O)c12` (centres unmarked) [Example 201, 6-(Cyclopropanecarboxamido)-4-((1-(2-methoxyethyl)-4-oxo-5-(1,1,1-trifluoropropan-2-yl)-4,5-dihydro-1H-pyrrolo[3,2-c]pyridin-3-yl)amino)-N-(methyl-d3)nicotinamide], the microsomal CLint at 1 μM in data set [1] (setting [5]) worked out at 64.4 µL/min/mg. In data set [1] (setting [6]), the half-life at 1 μM worked out at 0.359 h. For the same compound, in data set [2], the GI50 stood at 162 nM.
